Biological target: Endothelial lipase (EL) (Homo sapiens (Human), UniProt Q9Y5X9)
Assay: Endothelial lipase (EL) enzymatic assay with fluorescent substrate A10070 in DMPG vesicles
Format: biochemical
Method in brief: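 Substrate A10070 sits in sonicated DMPG vesicles at 0.11 mole fraction. Lipase and compound preincubated 30 min, 37° C, in HEPES pH 8.0 buffer with CaCl2.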

Sequence of Endothelial lipase (EL) (Q9Y5X9 21-500): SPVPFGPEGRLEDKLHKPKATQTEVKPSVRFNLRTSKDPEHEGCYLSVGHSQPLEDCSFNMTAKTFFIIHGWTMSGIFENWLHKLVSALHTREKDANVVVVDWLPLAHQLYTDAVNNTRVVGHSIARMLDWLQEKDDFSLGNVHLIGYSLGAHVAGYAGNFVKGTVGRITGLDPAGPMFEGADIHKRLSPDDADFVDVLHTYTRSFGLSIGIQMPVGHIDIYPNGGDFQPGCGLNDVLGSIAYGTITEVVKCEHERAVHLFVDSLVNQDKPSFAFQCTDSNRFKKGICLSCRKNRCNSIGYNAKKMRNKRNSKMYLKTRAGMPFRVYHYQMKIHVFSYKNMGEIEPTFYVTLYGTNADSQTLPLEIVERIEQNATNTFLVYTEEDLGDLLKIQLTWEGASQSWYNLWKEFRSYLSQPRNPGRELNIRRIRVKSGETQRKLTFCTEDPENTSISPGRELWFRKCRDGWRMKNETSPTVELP

SMILES	IC50 [nM]
CC(C)S(=O)(=O)C(C(=O)NCC(=O)NC1CC1)c1nc2cc(C(F)(F)F)c(-c3ccc(C(=O)N4CCOCC4)cc3)cc2s1 (stereo not shown) [Example 168, N-[(cyclopropyl-carbamoyl)methyl]-2-{6-[4-(morpholine-4-carbonyl)phenyl]-5-(trifluoromethyl)-1,3-benzothiazol-2-yl}-2-(propane-2-sulfonyl) acetamide]	24
COCCS(=O)(=O)C(C(=O)NCC(=O)NC1CC1)c1nc2ccc(-c3ccc4c(c3)C(=O)NC4)cc2s1 (stereo not shown) [Example 344, N-[(cyclopropyl-carbamoyl)methyl]-2-(2-methoxyethane-sulfonyl)-2-[6-(3-oxo-2,3-dihydro-1H-isoindol-5-yl)-1,3-benzothiazol-2-yl]acetamide]	98
CC(=O)N(C)c1ccc(-c2ccc3nc(C(C(=O)NCC(=O)NC4CC4)S(=O)(=O)CCC(F)(F)F)sc3c2)cc1 (stereo not shown) [Example 28, N-[(cyclopropyl-carbamoyl)methyl]-2-{6-[4-(N-methylacetamido)phenyl]-1,3-benzothiazol-2-yl}-2-(3,3,3-trifluoropropane-sulfonyl) acetamide]	54
CC(C)CS(=O)(=O)C(C(=O)NCC(=O)NC1CC1)c1nc2ccc(-c3ccc(F)nc3)cc2s1 (stereo not shown) [Example 516, N-[(cyclopropyl-carbamoyl)methyl]-2-[6-(6-fluoropyridin-3-yl)-1,3-benzothiazol-2-yl]-2-(2-methylpropane-sulfonyl)acetamide]	57
COCCS(=O)(=O)C(C(=O)NCC(=O)NC1CC1)c1nc2cc(-c3cncc(F)c3)ccc2s1 (stereo not shown) [Example 75, N-[(cyclopropyl-carbamoyl)methyl]-2-[5-(5-fluoropyridin-3-yl)-1,3-benzothiazol-2-yl]-2-(2-methoxyethane-sulfonyl) acetamide]	31
O=C(CNC(=O)C(c1nc2c(F)cc(-c3cnc(C4CC4)nc3)cc2s1)S(=O)(=O)c1ccc(F)cc1)NC1CC1 (stereo not shown) [Example 476, N-[(cyclopropyl-carbamoyl)methyl]-2-[6-(2-cyclopropyl-pyrimidin-5-yl)-4-fluoro-1,3-benzothiazol-2-yl]-2-(4-fluorobenzene-sulfonyl)acetamide]	51
Cc1cccc(S(=O)(=O)C(C(=O)NCC(=O)NC2CC2)c2nc3cc(-c4ccc(F)nc4)ccc3s2)c1 (stereo not shown) [Example 438, N-[(cyclopropyl-carbamoyl)methyl]-2-[5-(6-fluoropyridin-3-yl)-1,3-benzothiazol-2-yl]-2-(3-methylbenzene-sulfonyl)acetamide]	33
COCCS(=O)(=O)C(C(=O)NCC(=O)NC1CC1)c1nc2cc(-c3cccnc3)ccc2s1 (stereo not shown) [Example 85, N-[(cyclopropyl-carbamoyl)methyl]-2-(2-methoxyethane-sulfonyl)-2-[5-(pyridin-3-yl)-1,3-benzothiazol-2-yl]acetamide]	85
COCCS(=O)(=O)C(C(=O)NCC(=O)NC1CC1)c1nc2c(F)cc(-c3ccn(C)c(=O)c3)cc2s1 (stereo not shown) [Example 220, N-[(cyclopropyl-carbamoyl)methyl]-2-[4-fluoro-6-(1-methyl-2-oxo-1,2-dihydropyridin-4-yl)-1,3-benzothiazol-2-yl]-2-(2-methoxyethane-sulfonyl) acetamide]	60
COCCS(=O)(=O)C(C(=O)NCC(=O)NC1CC1)c1nc2cc(-c3cccnc3F)ccc2s1 (stereo not shown) [Example 82, N-[(cyclopropyl-carbamoyl)methyl]-2-[5-(2-fluoropyridin-3-yl)-1,3-benzothiazol-2-yl]-2-(2-methoxyethane-sulfonyl) acetamide]	61
COCCS(=O)(=O)C(C(=O)NCC(=O)NC1CC1)c1nc2c(F)cc(-c3ccc4[nH]c(=O)ccc4c3)cc2s1 (stereo not shown) [Example 216, N-[(cyclopropyl-carbamoyl)methyl]-2-[4-fluoro-6-(2-oxo-1,2-dihydroquinolin-6-yl)-1,3-benzothiazol-2-yl]-2-(2-methoxyethane-sulfonyl) acetamide]	19
COCCS(=O)(=O)C(C(=O)NCC(=O)NCCOC(C)C)c1nc2cc(-c3cnnc(C)c3)c(F)cc2s1 (stereo not shown) [Example 358, 2-[6-fluoro-5-(6-methylpyridazin-4-yl)-1,3-benzothiazol-2-yl]-2-(2-methoxyethane-sulfonyl)-N-({[2-(propan-2-yloxy)ethyl]carbamoyl}methyl)acetamide]	60
COCCS(=O)(=O)C(C(=O)NCC(=O)NC1CC1)c1nc2ccc(-c3ccc(OC(C)C)nc3)cc2s1 (stereo not shown) [Example 291, N-[(cyclopropyl-carbamoyl)methyl]-2-(2-methoxyethane-sulfonyl)-2-{6-[6-(propan-2-yloxy)pyridin-3-yl]-1,3-benzothiazol-2-yl} acetamide]	29

Second part, the compound after the results:

IC50 [nM]	SMILES
12	Cc1cc2nc(C(C(=O)NCC(=O)NC3CC3)S(=O)(=O)C(C)C)sc2cc1-c1ccc(NC(=O)OCc2ccccc2)cc1 (stereo not shown) [Example 285, benzyl N-{4-[2-({[(cyclopropyl-carbamoyl)methyl]carbamoyl} (propane-2-sulfonyl)methyl)-5-methyl-1,3-benzothiazol-6-yl]phenyl}carbamate]
12	CS(=O)(=O)C(C(=O)NCC(=O)NC1CC1)c1nc2ccc(-c3ccc(-n4ccnc4)cc3)cc2s1 (stereo not shown) [Example 580, N-[(cyclopropyl-carbamoyl)methyl]-2-{6-[4-(1H-imidazol-1-yl)phenyl]-1,3-benzothiazol-2-yl}-2-methanesulfonyl-acetamide]
13	O=C(CNC(=O)C(c1nc2cc(-c3ccc(F)nc3)ccc2s1)S(=O)(=O)c1ccccc1)NC1CC1 (stereo not shown) [Example 437, 2-(benzenesulfonyl)-N-[(cyclopropyl-carbamoyl)methyl]-2-[5-(6-fluoropyridin-3-yl)-1,3-benzothiazol-2-yl] acetamide]
12	COCCS(=O)(=O)C(C(=O)NCC(=O)NC1CC1)c1nc2ccc(-c3ccc(=O)n(C)c3)cc2s1 (stereo not shown) [Example 315, N-[(cyclopropyl-carbamoyl)methyl]-2-(2-methoxyethane-sulfonyl)-2-[6-(1-methyl-6-oxo-1,6-dihydropyridin-3-yl)-1,3-benzothiazol-2-yl}acetamide]
13	COCCNC(=O)c1ccc(-c2ccc3nc(C(C(=O)NCC(=O)NC4CC4)S(=O)(=O)CCOC)sc3c2)cc1 (stereo not shown) [Example 306, 4-[2-({[(cyclopropyl-carbamoyl)methyl]carbamoyl}(2-methoxyethane-sulfonyl)methyl)-1,3-benzothiazol-6-yl]-N-(2-methoxyethyl) benzamide]
9	COCCS(=O)(=O)C(C(=O)NCC(=O)NC1CC1)c1nc2cc(F)c(-c3ccc(-c4nnn(C)n4)cc3)cc2s1 (stereo not shown) [Example 593, N-[(cyclopropyl-carbamoyl)methyl]-2-{5-fluoro-6-[4-(2-methyl-2H-1,2,3,4-tetrazol-5-yl)phenyl]-1,3-benzothiazol-2-yl}-2-(2-methoxyethane-sulfonyl)acetamide]
10	Cc1ccc(-c2cc3nc(C(C(=O)NCC(=O)NC4CC4)S(=O)(=O)C(C)C)sc3cc2F)cn1 (stereo not shown) [Example 262, N-[(cyclopropyl-carbamoyl)methyl]-2-[6-fluoro-5-(6-methylpyridin-3-yl)-1,3-benzothiazol-2-yl]-2-(propane-2-sulfonyl)acetamide]
19	COC(=O)N(C)c1cccc(-c2ccc3nc(C(C(=O)NCC(=O)NC4CC4)S(C)(=O)=O)sc3c2)c1 (stereo not shown) [Example 544, methyl N-{3-[2-({[(cyclopropyl-carbamoyl)methyl]carbamoyl} (methanesulfonyl)methyl)-1,3-benzothiazol-6-yl]phenyl}-N-methylcarbamate]
1	COCCS(=O)(=O)C(C(=O)NCC(=O)NCCOc1ccccc1)c1nc2ccc(-c3ccc(F)nc3)cc2s1 (stereo not shown) [Example 380, 2-[6-(6-fluoropyridin-3-yl)-1,3-benzothiazol-2-yl]-2-(2-methoxyethane-sulfonyl)-N-{[(2-phenoxyethyl)carbamoyl]methyl} acetamide]
3	O=C(CNC(=O)C(c1nc2cc(F)c(-c3ccc(NC(=O)OCc4ccccc4)cc3)cc2s1)S(=O)(=O)CC1CC1)NC1CC1 (stereo not shown) [Example 51, benzyl N-{4-[2-({[(cyclopropyl-carbamoyl)methyl]carbamoyl} (cyclopropyl-methanesulfonyl)methyl)-5-fluoro-1,3-benzothiazol-6-yl]phenyl} carbamate]
5	COC(=O)Nc1cccc(-c2cc3nc(C(C(=O)NCC(=O)NC4CC4)S(C)(=O)=O)sc3cc2F)c1 (stereo not shown) [Example 123, methyl N-{3-[2-({[(cyclopropyl-carbamoyl)methyl]carbamoyl} (methanesulfonyl)methyl)-6-fluoro-1,3-benzothiazol-5-yl]phenyl} carbamate]
14	CS(=O)(=O)C(C(=O)NCC(=O)NC1CC1)c1nc2cc(F)c(-c3ccnc(F)c3)cc2s1 (stereo not shown) [Example 321, N-[(cyclopropyl-carbamoyl)methyl]-2-[5-fluoro-6-(2-fluoropyridin-4-yl)-1,3-benzothiazol-2-yl]-2-methanesulfonyl-acetamide]
1	COCCS(=O)(=O)C(C(=O)NCC(=O)NC1CC1)c1nc2cc(F)c(-c3ccc(NC(=O)CCc4ccccc4)cc3)cc2s1 (stereo not shown) [Example 577, N-{4-[2-({[(cyclopropyl-carbamoyl)methyl]carbamoyl}(2-methoxyethane-sulfonyl)methyl)-5-fluoro-1,3-benzothiazol-6-yl]phenyl}-3-phenyl-propanamide]
4	C[C@@H]1CN(C(=O)c2ccc(-c3ccc4nc(C(C(=O)NCC(=O)NC5CC5)S(C)(=O)=O)sc4c3)cc2)C[C@H](C)O1 (stereo partly drawn) [Example 570, N-[(cyclopropyl-carbamoyl)methyl]-2-(6-{4-[(2R,6S)-2,6-dimethyl-morpholine-4-carbonyl]phenyl}-1,3-benzothiazol-2-yl)-2-methanesulfonyl-acetamide]
7	Cc1cc(-c2cc3nc(C(C(=O)NCC(=O)NC4CC4)S(=O)(=O)C(C)C)sc3cc2F)ccn1 (stereo not shown) [Example 264, N-[(cyclopropyl-carbamoyl)methyl]-2-[6-fluoro-5-(2-methylpyridin-4-yl)-1,3-benzothiazol-2-yl]-2-(propane-2-sulfonyl)acetamide]
